According to patent US20260176266A1, “PIPERIDINOPYRIMIDINE DERIVATIVE, PREPARATION METHOD THEREFOR AND USE THEREOF IN MEDICINE” (TUOJIE BIOTECH (SHANGHAI) CO., LTD., priority 2022, published 2026):

Columns and labels:
Type in all cases: cell-based
[1] = system: OVCAR3 ovarian cancer cells; experiment: Inhibitory activity against ovarian cancer cells (OVCAR3), CellTiter-Glo viability; settings: Homo sapiens, OVCAR-3, 120 h, OVCAR3, 5 days treatment
Experimental: OVCAR3 ovarian cancer cells were cultured in a cell incubator at […] with 5% CO2 using RPMI 1640 medium with […]. On the first day, the cells were plated in a 96-well plate at a cell concentration of 2500 cells/well and cultured overnight in the incubator. On the second day, the cells were treated with compounds. The maximum compound concentration was 10 μM and was 3-fold diluted to obtain 9 concentrations, and the final concentration of DMSO was 0.1%. After the cells were cultured in the incubator for another 5 days, cell viability was tested using the Celltiter Glo assay kit (Promega), and the testing method was consistent with the operational method provided by the kit. Data were processed using GraphPad Prism 8, and IC50 was calculated.
[formula] • X: the logarithm of the compound concentration; Y: % inhibition.

MCF7 breast cancer cells = experiment: Inhibitory activity against tumor cells, CellTiter-Glo: MCF7; settings: Homo sapiens, 168 h, MCF7, 7 days treatment
Experimental: (§1) MCF7 (ATCC #HTB-22) and T47D (ATCC #HTB-133) breast cancer cells and PANC-1 (ATCC #CRL-1469) pancreatic cancer cells were purchased from ATCC. MDA-MB-231 (Cobioer #CBP60382), HCC1806 (Cobioer #CBP60373), and MDA-MB-468 (Cobioer #CBP60387) breast cancer cells, HCT-116 (Cobioer #CBP60028) colorectal cancer cells, and OCI-AML-3 (Cobioer #CBP60817) and MV-4-11 (Cobioer #CBP60522) leukemia cells were purchased from Nanjing Cobioer Biosciences Co., Ltd.
(§2) OCI-AML-3 was cultured in RPMI 1640 medium with 20% FBS; HCC1806 and T47D were cultured in RPMI 1640 medium with 10% FBS; MCF7, MDA-MB-231, MDA-MB-468, and PANC-1 were cultured in DMEM medium with 10% FBS; MV-4-11 was cultured in IMDM medium with 20% FBS; HCT-116 was cultured in MC′5A medium with 10% FBS.
(§3) Palbociclib-resistant cells were constructed on MCF7 parent cells, designated MCF7 Palbo-R, and the culture conditions were consistent with those of the parent cells. All tumor cells were cultured in a cell incubator at 37° C. with 5% CO2. The cells were seeded at corresponding cell densities (600 cells/well for MDA-MB-231; 500 cells/well for MDA-MB-468, PANC-1, and HCT-116; 200 cells/well for MCF7 and HCC1806; 800 cells/well for MCF7 Palbo-R; 3000 cells/well for OCI-AML-3 and MV-4-11) in 384-well plates and cultured overnight in the incubator. On the second day, the cells were treated with compounds. The maximum compound concentration was 10 μM and was 3-fold diluted to obtain 9 concentrations, each tested in duplicate, and the final concentration of DMSO was 0.1%. The cells continued to be cultured in the incubator, with MDA-MB-231, PANC-1, MDA-MB-468, OCI-AML-3, and MV-4-11 being treated with drugs for 5 days and HCC1806, MCF7, MCF7 Palbo-R, and HCT116 being treated with drugs for 7 days. Cell viability was tested using the Celltiter Glo assay kit (Promega), and the testing method was consistent with the operational method provided by the kit. Readings were taken using an Envision multimode microplate reader. Data were processed using GraphPad Prism 8, and IC50 was calculated. […]

[2] = system: MCF7 Palbo-R (palbociclib-resistant cells constructed on MCF7); experiment: Inhibitory activity against tumor cells, CellTiter-Glo: MCF7 Palbo-R; settings: Homo sapiens, 168 h, 7 days treatment
Experimental: as §1, §2, §3

T47D breast cancer cells = experiment: Inhibitory activity against tumor cells, CellTiter-Glo: T47D; settings: Homo sapiens
Experimental: as §1, §2
(§4) Palbociclib-resistant cells were constructed on MCF7 parent cells, designated MCF7 Palbo-R, and the culture conditions were consistent with those of the parent cells. All tumor cells were cultured in a cell incubator at 37° C. with 5% CO2. The cells were seeded at corresponding cell densities (600 cells/well for MDA-MB-231; 500 cells/well for MDA-MB-468, PANC-1, and HCT-116; 200 cells/well for MCF7 and HCC1806; 800 cells/well for MCF7 Palbo-R; 3000 cells/well for OCI-AML-3 and MV-4-11) in 384-well plates and cultured overnight in the incubator. On the second day, the cells were treated with compounds. The maximum compound concentration was 10 μM and was 3-fold diluted to obtain 9 concentrations, each tested in duplicate, and the final concentration of DMSO was 0.1%. The cells continued to be cultured in the incubator, with MDA-MB-231, PANC-1, MDA-MB-468, OCI-AML-3, and MV-4-11 being treated with drugs for 5 days and HCC1806, MCF7, MCF7 Palbo-R, and HCT116 being treated with drugs for 7 days. Cell viability was tested using the Celltiter Glo assay kit (Promega), and the testing method was consistent with the operational method provided by the kit. Readings were taken using an Envision multimode microplate reader. Data were processed using GraphPad Prism 8, and IC50 was calculated.
(§5) Y=Bottom+(Top−Bottom)/(1+10^((Log IC50−X)×HillSlope)). Calculation formula: • X: the logarithm of the compound concentration; Y: % inhibition.

[3] = system: PANC-1 pancreatic cancer cells; experiment: Inhibitory activity against tumor cells, CellTiter-Glo: PANC-1; settings: Homo sapiens, 120 h, PANC-1, 5 days treatment
Experimental: as §1, §2, §3

[4] = system: MDA-MB-231 breast cancer cells; experiment: Inhibitory activity against tumor cells, CellTiter-Glo: MDA-MB-231; settings: Homo sapiens, 120 h, MDA-MB-231, 5 days treatment
Experimental: as §1, §2, §3

[5] = system: HCC1806 breast cancer cells; experiment: Inhibitory activity against tumor cells, CellTiter-Glo: HCC1806; settings: Homo sapiens, 168 h, HCC1806, 7 days treatment
Experimental: as §1, §2, §3

[6] = system: MDA-MB-468 breast cancer cells; experiment: Inhibitory activity against tumor cells, CellTiter-Glo: MDA-MB-468; settings: Homo sapiens, 120 h, MDA-MB-468, 5 days treatment
Experimental: as §1, §2, §3

[7] = system: HCT-116 colorectal cancer cells; experiment: Inhibitory activity against tumor cells, CellTiter-Glo: HCT-116; settings: Homo sapiens, 168 h, HCT-116, 7 days treatment
Experimental: as §1, §2, §4, §5

OCI-AML-3 leukemia cells = experiment: Inhibitory activity against tumor cells, CellTiter-Glo: OCI-AML-3; settings: Homo sapiens, 120 h, OCI-AML-3, 5 days treatment
Experimental: as §1, §2, §3

MV-4-11 leukemia cells = experiment: Inhibitory activity against tumor cells, CellTiter-Glo: MV-4-11; settings: Homo sapiens, MV4-11, 120 h, MV-4-11, 5 days treatment
Experimental: as §1, §2, §3

various tumor cell lines = experiment: Inhibitory activity against tumor cells, summary over the panel of Tables 4 and 5; settings: summary of Tables 4 and 5
Experimental: as §1, §2, §4, §5

C#Cc1cccc([C@@H]2CN(C)CC[C@H]2C(=O)N2Cc3nc(NCc4ccn(C)n4)ncc3C[C@H]2C)c1 [Compound 1-2, ((3R,4R)-3-(3-Ethynylphenyl)-1-methylpiperidin-4-yl)((R)-6-methyl-2-(((1-methyl-1H-pyrazol-3-yl)methyl)amino)-5,8-dihydropyrido[3,4-d]pyrimidin-7(6H)-yl)methanone]
IC50 [1]: 11.5 nM

C[C@@H]1Cc2cnc(Nc3cnn(C)c3)nc2CN1C(=O)N[C@H](CN(C)C)c1ccccc1 [Example 17, (R)—N—((S)-2-(Dimethylamino)-1-phenylethyl)-6-methyl-2-((1-methyl-1H-pyrazol-4-yl)amino)-5,8-dihydropyrido[3,4-d]pyrimidine-7(6H)-carboxamide]
IC50 [1]: 22.5 nM

Cc1cc(Nc2ncc3c(n2)CN(C(=O)N[C@H](CN(C)C)c2ccccc2)[C@H](C)C3)ccn1 [Example 15, (R)—N—((S)-2-(Dimethylamino)-1-phenylethyl)-6-methyl-2-((2-methylpyridin-4-yl)amino)-5,8-dihydropyrido[3,4-d]pyrimidine-7(6H)-carboxamide]
IC50 [1]: 26.7 nM

C[C@@H]1Cc2cnc(Nc3cnn(CC4CC4)c3)nc2CN1C(=O)N[C@H](CN(C)C)c1ccccc1 [Example 16, (R)-2-((1-(Cyclopropylmethyl)-1H-pyrazol-4-yl)amino)-N—((S)-2-(dimethylamino)-1-phenylethyl)-6-methyl-5,8-dihydropyrido[3,4-d]pyrimidine-7(6H)-carboxamide]
IC50 [1]: 9.99 nM

[2H]C([2H])([2H])n1ccc(CNc2ncc3c(n2)CN(C(=O)N[C@H](CN(C)C)c2ccccc2)[C@H](C)C3)n1 [Example 14, (R)—N—((S)-2-(Dimethylamino)-1-phenylethyl)-6-methyl-2-(((1-(methyl-d3)-1H-pyrazol-3-yl)methyl)amino)-5,8-dihydropyrido[3,4-d]pyrimidine-7(6H)-carboxamide]
IC50 [1]: 40.5 nM

[2H]C([2H])([2H])N(C[C@@H](NC(=O)N1Cc2nc(NCc3ccn(C)n3)ncc2C[C@H]1C)c1ccccc1)C([2H])([2H])[2H] [Example 12, (R)—N—((S)-2-(Bis(methyl-d3)amino)-1-phenylethyl)-6-methyl-2-(((1-methyl-1H-pyrazol-3-yl)methyl)amino)-5,8-dihydropyrido[3,4-d]pyrimidine-7(6H)-carboxamide]
IC50 [1]: 33.9 nM
IC50 (MCF7 breast cancer cells): 21.7 nM
IC50 [2]: 43.3 nM
IC50 (T47D breast cancer cells): 41.5 nM
IC50 [3]: 50.3 nM
IC50 [4]: 25.8 nM
IC50 [5]: 28.5 nM
IC50 [6]: 32.4 nM
IC50 [7]: 66 nM
IC50 (OCI-AML-3 leukemia cells): 47.1 nM
IC50 (MV-4-11 leukemia cells): 27.3 nM
inhibitory activity against the various tumor cell lines (in words) (various tumor cell lines): high inhibitory activity

[2H]C([2H])([2H])N(C[C@@H](NC(=O)N1Cc2nc(N[C@@H](C)c3ccccn3)ncc2C[C@H]1C)c1ccccc1)C([2H])([2H])[2H] [Example 19, (R)—N—((S)-2-(Bis(methyl-d3)amino)-1-phenylethyl)-6-methyl-2-(((S)-1-(pyridin-2-yl)ethyl)amino)-5,8-dihydropyrido[3,4-d]pyrimidine-7(6H)-carboxamide]
IC50 [1]: 26.1 nM
IC50 (T47D breast cancer cells): 14.1 nM
IC50 [7]: 29.2 nM
inhibitory activity against the various tumor cell lines (in words) (various tumor cell lines): high inhibitory activity

C[C@@H]1Cc2cnc(NCc3ccn(C)n3)nc2CN1C(=O)N[C@H](CN(C)C)c1cccc(Cl)c1 [Example 13, (R)—N—((S)-1-(3-Chlorophenyl)-2-(dimethylamino)ethyl)-6-methyl-2-(((1-methyl-TH-pyrazol-3-yl)methyl)amino)-5,8-dihydropyrido[3,4-d]pyrimidine-7(6H)-carboxamide]
IC50 [1]: 21.7 nM

CC1Cc2cnc(NC3CCOCC3)nc2CN1C(=O)N[C@H](CN(C)C)c1ccccc1 (stereo partly drawn) [Example 10, N—((S)-2-(Dimethylamino)-1-phenylethyl)-6-methyl-2-((tetrahydro-2H-pyran-4-yl)amino)-5,8-dihydropyrido[3,4-d]pyrimidine-7(6H)-carboxamide]
IC50 [1]: 42.6 nM

C[C@@H]1Cc2cnc(N[C@H](C)c3ccccc3)nc2CN1C(=O)N[C@H](CN(C)C)c1ccccc1 [Example 5, (R)—N—((S)-2-(Dimethylamino)-1-phenylethyl)-6-methyl-2-(((R)-1-phenylethyl)amino)-5,8-dihydropyrido[3,4-d]pyrimidine-7(6H)-carboxamide]
IC50 [1]: 81.2 nM

CCN(C)C[C@@H](NC(=O)N1Cc2nc(NCc3ccn(C)n3)ncc2C[C@H]1C)c1ccccc1 [Example 8, (R)—N—((S)-2-(Ethyl(methyl)amino)-1-phenylethyl)-6-methyl-2-(((1-methyl-1H-pyrazol-3-yl)methyl)amino)-5,8-dihydropyrido[3,4-d]pyrimidine-7(6H)-carboxamide]
IC50 [1]: 58.3 nM

C[C@H](Nc1ncc2c(n1)CN(C(=O)N[C@H](CN(C)C)c1ccccc1)[C@H](C)C2)c1ccccc1 [Example 9, (R)—N—((S)-2-(Dimethylamino)-1-phenylethyl)-6-methyl-2-(((S)-1-phenylethyl)amino)-5,8-dihydropyrido[3,4-d]pyrimidine-7(6H)-carboxamide]
IC50 [1]: 13.8 nM

C[C@@H]1Cc2cnc(NC3Cc4ccccc4C3)nc2CN1C(=O)N[C@H](CN(C)C)c1ccccc1 [Example 7, (R)-2-((2,3-Dihydro-1H-inden-2-yl)amino)-N—((S)-2-(dimethylamino)-1-phenylethyl)-6-methyl-5,8-dihydropyrido[3,4-d]pyrimidine-7(6H)-carboxamide]
IC50 [1]: 6.44 nM
